Molecular target: D(2) dopamine receptor (Rattus norvegicus, UniProt P61169)
Experiment: Affinity towards Dopamine receptor D2 in rat striatum using [3H]spiperone as radioligand

D(2) dopamine receptor, sequence (P61169 whole entry): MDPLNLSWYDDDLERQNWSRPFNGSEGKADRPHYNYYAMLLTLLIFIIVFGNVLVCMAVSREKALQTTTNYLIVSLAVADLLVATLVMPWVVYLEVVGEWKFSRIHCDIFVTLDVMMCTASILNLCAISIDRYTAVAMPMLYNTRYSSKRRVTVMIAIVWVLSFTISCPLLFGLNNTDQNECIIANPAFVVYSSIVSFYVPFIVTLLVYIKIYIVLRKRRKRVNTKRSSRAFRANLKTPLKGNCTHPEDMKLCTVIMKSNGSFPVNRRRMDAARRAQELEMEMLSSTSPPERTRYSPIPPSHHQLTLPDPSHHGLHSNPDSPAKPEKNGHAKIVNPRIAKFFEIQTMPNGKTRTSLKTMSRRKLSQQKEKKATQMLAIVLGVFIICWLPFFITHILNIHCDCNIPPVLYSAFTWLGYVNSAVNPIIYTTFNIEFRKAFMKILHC

`COc1cc(N)c(Cl)cc1C(=O)NC1CC2CCC(C1)N2C` (stereo unspecified) [4-amino-5-chloro-2-methoxy-N-(8-methyl-8-azabicyclo[3.2.1]octan-3-yl)benzamide] gave a Ki greater than 1 µM.

Source: BindingDB's records for doi:10.1021/jm020270n (Dainippon Pharmaceutical, 2003)
